Laboratory results reported in US20240132536A1, “CRYSTAL FORM OF 3-HYDROXY-5-PREGNANE-20-ONE DERIVATIVE, AND PREPARATION METHOD THEREFOR AND USE THEREOF” (priority 2021, published 2024).
Read-outs that look alike come from different tables or passages of the source.

Assays:
[1] = cited from earlier work
[2] = in vivo; cited from earlier work
[3] = format: physicochemical; conditions: for Purity by HPLC, high humidity (RH92.5%) / Purity by HPLC, high temperature (60° C.) / Purity by HPLC, light (4500 ± 500 Lux): hydrochloride
[4] = Polymorph study: crystalline form A suspended and pulped in solvents, precipitate assayed by XRPD; format: physicochemical; conditions: for Crystalline form after suspension (XRPD): stirred 2 days at 40° C. in darkness
Procedure: (§1) XRPD (X-ray Powder Diffraction) Method 1: about 10 mg of a sample is uniformly laid on a single crystal silicon sample disc, and XRPD detection is performed using following parameters. Instrument model: X'Pert^3 X-ray diffractometer; target: Cu-Kα (40 mA, 45 kV); scanning range from 3° to 40° in the 2θ interval.
The solution was centrifuged to remove the precipitates, which were dried and assayed by XPRD as follows: […]

[5] = Mechanical stability of crystalline form A (XRPD after mechanical treatment); format: physicochemical
[6] = Accelerated stability test of crystalline form A (XRPD); format: physicochemical; conditions: open, 40° C., RH75%, 3 months (sampled at 1, 2, 3 months)
Procedure: as §1

| SMILES | Purity by HPLC, high humidity (RH92.5%) ([3]; day 0) [%] | Purity by HPLC, high temperature (60° C.) ([3]; day 0) [%] | Purity by HPLC, light (4500 ± 500 Lux) ([3]; day 0) [%] | Purity by HPLC, high humidity (RH92.5%) ([3]; day 5) [%] | Purity by HPLC, high temperature (60° C.) ([3]; day 5) [%] | Purity by HPLC, light (4500 ± 500 Lux) ([3]; day 5) [%] | Purity by HPLC, high humidity (RH92.5%) ([3]; day 10) [%] | Purity by HPLC, high temperature (60° C.) ([3]; day 10) [%] | Purity by HPLC, light (4500 ± 500 Lux) ([3]; day 10) [%] | Purity by HPLC, high humidity (RH92.5%) ([3]; day 30) [%] | Purity by HPLC, high temperature (60° C.) ([3]; day 30) [%] | Purity by HPLC, light (4500 ± 500 Lux) ([3]; day 30) [%] | other results |
| --- | --- | --- | --- | --- | --- | --- | --- | --- | --- | --- | --- | --- | --- |
| CC(=O)[C@H]1CC[C@H]2[C@@H]3CC[C@H]4C[C@H](O)CC[C@]4(C)[C@H]3CC[C@]12C [allopregnanolone] | – | – | – | – | – | – | – | – | – | – | – | – | human plasma half-life period [1]: about 45 minutes; oral availability [2]: poor |
| CC(=O)[C@H]1CC[C@H]2[C@@H]3CC[C@H]4C[C@H](OC(=O)[C@@H](NC(=O)CN)C(C)C)CC[C@]4(C)[C@H]3CC[C@]12C.Cl [crystalline form B, glycine-L-valine 3α-hydroxy-5α-pregnan-20-one ester hydrochloride] | 99.59 | 99.59 | 99.59 | 99.58 | 99.57 | 99.55 | 99.55 | 99.54 | 99.53 | 99.56 | 99.52 | 99.52 | – |
| CC(=O)[C@H]1CC[C@H]2[C@@H]3CC[C@H]4C[C@H](OC(=O)[C@@H](NC(=O)CN)C(C)C)CC[C@]4(C)[C@H]3CC[C@]12C.Cl [crystalline form A, glycine-L-valine 3α-hydroxy-5α-pregnan-20-one ester hydrochloride] | 99.69 | 99.69 | 99.69 | 99.69 | 99.62 | 99.66 | 99.69 | 99.68 | 99.70 | 99.69 | 99.69 | 99.67 | Crystalline form after suspension (XRPD) ([4]; Acetone): Crystalline form A; Crystalline form after suspension (XRPD) ([4]; Ethanol): Crystalline form A; Crystalline form after suspension (XRPD) ([4]; Ethyl acetate): Crystalline form A; Crystalline form after suspension (XRPD) ([4]; Methanol): Crystalline form A; Crystalline form after suspension (XRPD) ([4]; Methyl tert-butyl ether): Crystalline form A; Crystalline form after suspension (XRPD) ([4]; Toluene): Crystalline form A; Crystalline form after suspension (XRPD) ([4]; n-Heptane): Crystalline form A; Stability in different solvent systems (conclusion) ([4]; seven solvents, 2 days at 40° C.): remains stable; Stability under high temperature, high humidity and light conditions (conclusion) ([3]; up to 30 days): stable; Effect of grinding, mechanical pulverising and pressure on stability (conclusion) [5]: no effects; Crystalline form after mechanical treatment (XRPD) ([5]; Ground in an agate mortar for a few minutes): Crystalline form A; Crystalline form after mechanical treatment (XRPD) ([5]; pressed in a tablet press): Crystalline form A; Crystalline form after mechanical treatment (XRPD) ([5]; pulverised in a mechanical shredder for a few minutes): Crystalline form A; Change of crystalline form (XRPD) after accelerated stability test [6]: no change |
| CC(=O)[C@H]1CC[C@H]2[C@@H]3CC[C@H]4C[C@H](OC(=O)[C@@H](NC(=O)CN)C(C)C)CC[C@]4(C)[C@H]3CC[C@]12C.Cl [crystalline form C, glycine-L-valine 3α-hydroxy-5α-pregnan-20-one ester hydrochloride] | 99.62 | 99.62 | 99.62 | 99.58 | 99.61 | 99.60 | 99.56 | 99.59 | 99.59 | 99.53 | 99.60 | 99.57 | – |
